The subject of data set [1] is HepG2. Kind of data set: Cytotoxicity against human HepG2 cells assessed as cell growth inhibition incubated for 1 day by neutral red assay. In kind it is functional, cell-based. To be noted: HepG2, 24 h.
The subject of data set [2] is Plasmodium falciparum. As to the kind of experiment: Antiplasmodial activity against chloroquine-resistant erythrocytic stage Plasmodium falciparum Dd2 assessed as inhibition of parasite growth incubated for 3 days by HRP2-ELISA. In kind it is functional, organism-based. To be noted: Dd2, 72 h. Background: ELISA stands for enzyme-linked immunosorbent assay.
Data set [3] in a line: Selectivity index, ratio of IC50 for human HepG2 cells to IC50 for […] erythrocytic stage Plasmodium falciparum 3D7. In kind it is toxicity. To be noted: read-out: Selectivity Index.
The subject of data set [4] is Plasmodium berghei. As to the kind of experiment: Antiplasmodial activity against hepatic stage Plasmodium berghei infected in Huh-7 cells assessed as cell viability incubated for 1 hrs by bioluminescence assay. In kind it is functional, organism-based.
The subject of data set [5] is Plasmodium falciparum. As to the kind of experiment: Antiplasmodial activity against chloroquine-sensitive erythrocytic stage Plasmodium falciparum 3D7 assessed as inhibition of parasite growth incubated for 3 days by HRP2-ELISA. To be noted: 3D7, 72 h. In kind it is functional, organism-based.

Calls of active or inactive are those of the source. The rule behind the calls is not given here.

The values below come from ChEMBL document CHEMBL4828716, “Further investigation of harmicines as novel antiplasmodial agents: Synthesis, structure-activity relationship and insight into the mechanism of action” (Eur J Med Chem, 2021).

What is called IC50 is the point on the concentration scale where inhibition reaches its midpoint.

`Cc1nccc2c1[nH]c1ccc(OCc3cn(C/C=C/c4cccc(Br)c4)nn3)cc12`: the IC50 in data set [1] amounted to 6.13 µM; in data set [2], 0.73 µM; in data set [5], 0.26 µM. Further, in data set [3], the selectivity ratio stood at 23.6. The outcome in data set [4] was Active.

For the compound `Cc1nc(CO)cc2c3ccccc3n(Cc3cn(C/C=C/c4ccc(Cl)cc4)nn3)c12`, the values for the IC50 in data set [2] and in data set [5] were greater than 23.6 µM and greater than 19.9 µM, respectively. The outcome in data set [4] was Active.

Regarding `COc1ccc(/C=C/C(=O)OCc2cn(Cc3cc4c([nH]c5ccccc54)c(C)n3)nn2)cc1`, the IC50 in data set [2] and in data set [5] was greater than 27.8 µM in each case. The outcome in data set [4] was Active.

As to `O=C(/C=C/c1cccc(F)c1)NCc1nccc2c1[nH]c1ccccc12`, the IC50 in data set [2] and in data set [5] was greater than 27.8 µM in each case.

For the compound `Cc1nccc2c1[nH]c1ccc(OCCNC(=O)/C=C/c3cccc(C(F)(F)F)c3)cc12`, the IC50 is 6.14 µM in data set [1], 0.32 µM in data set [2] and 0.12 µM in data set [5]. Moreover, the selectivity ratio in data set [3] was 51.2. The outcome in data set [4] was Active.

`O=C(/C=C/c1ccc(F)cc1)NCc1nccc2c1[nH]c1ccccc12`: the IC50 in data set [2] and in data set [5] was greater than 13.9 µM throughout.

Turning to `O=C(/C=C/c1cccc(F)c1)OCc1cn(Cc2nccc3c2[nH]c2ccccc23)nn1`, the values for the IC50 in data set [2] and in data set [5] were greater than 20.1 µM and greater than 17.3 µM, respectively.

Take `O=C(/C=C/c1cccc(Br)c1)NCc1nccc2c1[nH]c1ccccc12`: the IC50 in data set [2] and in data set [5] was greater than 27.8 µM in each case.

With `COc1ccc(/C=C/C(=O)OCc2cn(Cc3nccc4c3[nH]c3ccccc34)nn2)cc1`, the IC50 in data set [2] was 39.2 µM; in data set [5] it was greater than 55.6 µM.

Regarding `O=C(/C=C/c1ccc(Cl)cc1)OCc1cn(Cc2nccc3c2[nH]c2ccccc23)nn1`, the IC50 in data set [2] and in data set [5] was greater than 55.6 µM in each case.

Regarding `Cc1nc(Cn2cc(COC(=O)/C=C/c3ccccc3)nn2)cc2c1[nH]c1ccccc12`, the IC50 in data set [2] was greater than 27.8 µM; in data set [5], greater than 20 µM. Also, the result in data set [4] was Active.

With `COc1ccc2c(c1)[nH]c1c(C)nccc12` [HARMINE], the results for the IC50 in data set [1] and in data set [2] were greater than 250 µM and greater than 27.7 µM, respectively. For the same compound, the selectivity ratio in data set [3] came out at 30.

In the case of `COc1ccc(/C=C/Cn2cc(Cn3c4ccccc4c4cc(CO)nc(C)c43)nn2)cc1`, the figures for the IC50 in data set [2] and in data set [5] were greater than 16.9 µM and 18.2 µM, respectively. Also, the outcome in data set [4] was Active.

Regarding `Cc1nc(CO)cc2c3ccccc3n(Cc3cn(C/C=C/c4ccccc4)nn3)c12`, the IC50 in data set [2] is greater than 19.8 µM; in data set [5], greater than 27.8 µM. Moreover, the outcome in data set [4] was Active.

Turning to `O=C(/C=C/c1ccc(Cl)cc1)NCc1nccc2c1[nH]c1ccccc12`, the IC50 in data set [2] and in data set [5] was greater than 27.8 µM each time.

With `COc1ccc(/C=C/C(=O)NCc2nccc3c2[nH]c2ccccc23)cc1`, the IC50 in data set [2] and in data set [5] was greater than 27.8 µM throughout.

`O=C(/C=C/c1cccc(Br)c1)OCc1cn(Cc2nccc3c2[nH]c2ccccc23)nn1`: the IC50 was greater than 19.1 µM in data set [2] and greater than 13.2 µM in data set [5].

Regarding `O=C(/C=C/c1ccc(C(F)(F)F)cc1)NCc1nccc2c1[nH]c1ccccc12`, the IC50 in data set [2] and in data set [5] was greater than 55.6 µM each time.

For the compound `Cc1nc(Cn2cc(COC(=O)/C=C/c3cccc(F)c3)nn2)cc2c1[nH]c1ccccc12`, the IC50 in data set [2] and in data set [5] was greater than 27.8 µM in each case. Further, the outcome in data set [4] was Active.

In the case of `O=C(/C=C/c1ccccc1)NCc1nccc2c1[nH]c1ccccc12`, the IC50 in data set [2] is greater than 55.6 µM; in data set [5], greater than 28 µM.

Take `O=C(/C=C/c1ccccc1)OCc1cn(Cc2nccc3c2[nH]c2ccccc23)nn1`: the 50% inhibitory concentration (IC50) in data set [2] was greater than 20.2 µM; in data set [5], greater than 27.8 µM.

For the compound `O=C(/C=C/c1cccc(C(F)(F)F)c1)NCc1nccc2c1[nH]c1ccccc12`, the IC50 in data set [2] and in data set [5] was greater than 27.8 µM throughout.
